From PubChem BioAssay (NCI)
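Values below derive from 48-hour exposures of cells grown in 96-well plates, with endpoints linearly interpolated between the two concentrations bracketing the appropriate inhibition level. GI50 = concentration required for 50% inhibition of growth. TGI denotes the concentration required for complete inhibition of growth.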

Columns and labels:
Assay in all cases: NCI tumour cell line growth inhibition, 48 h
786-0 renal = test system: 786-0 renal
ACHN renal = test system: ACHN renal
HOP-92 NSCLC = test system: HOP-92 NSCLC
K-562 leukemia = test system: K-562 leukemia
LOX IMVI melanoma = test system: LOX IMVI melanoma
MALME-3M melanoma = test system: MALME-3M melanoma
NCI-H23 lung = test system: NCI-H23 lung
RXF 393 renal = test system: RXF 393 renal
SF-295 CNS = test system: SF-295 CNS
OVCAR-5 ovarian = test system: OVCAR-5 ovarian

| SMILES | TGI (786-0 renal) [µM] | TGI (ACHN renal) [µM] | TGI (HOP-92 NSCLC) [µM] | TGI (K-562 leukemia) [µM] | TGI (LOX IMVI melanoma) [µM] | TGI (MALME-3M melanoma) [µM] | TGI (NCI-H23 lung) [µM] | TGI (RXF 393 renal) [µM] | TGI (SF-295 CNS) [µM] | TGI (OVCAR-5 ovarian) [µM] | GI50 (786-0 renal) [µM] | GI50 (ACHN renal) [µM] | GI50 (HOP-92 NSCLC) [µM] | GI50 (K-562 leukemia) [µM] | GI50 (LOX IMVI melanoma) [µM] | GI50 (MALME-3M melanoma) [µM] | GI50 (NCI-H23 lung) [µM] | GI50 (OVCAR-5 ovarian) [µM] | GI50 (RXF 393 renal) [µM] | GI50 (SF-295 CNS) [µM] |
| --- | --- | --- | --- | --- | --- | --- | --- | --- | --- | --- | --- | --- | --- | --- | --- | --- | --- | --- | --- | --- |
| NC(CCc1nc(-c2ccccc2)cs1)C(=O)O (stereo not given) | > 100 | > 100 | > 100 | > 100 | > 100 | > 100 | > 100 | > 100 | > 100 |  |  |  |  |  |  |  |  |  |  |  |
| CN1NC(c2ccccc2)=C(C#N)C(=O)CC1c1ccccc1Cl (stereo not given) | > 100 | > 100 | > 100 |  | > 100 | > 100 | > 100 | > 100 | > 100 | > 100 |  |  |  |  |  |  |  |  |  |  |
| CC(C)NCCCNC1=C(Cl)C(=O)c2ccccc2C1=O | 33.5 | 25.8 | 31.2 | 4.92 | 3.96 | 3.69 | 4.56 | 27.8 |  | 31.1 | 18.1 | 12.6 | 14.6 | 2.05 | 1.87 | 1.97 | 1.88 | 14.3 | 14.5 |  |
| O=C(CN1C(=O)c2ccccc2C1=O)OC1C=CCCC1 (stereo not given) | > 100 | > 100 |  | > 100 |  | > 100 |  | > 100 |  |  |  |  |  |  |  |  |  |  |  |  |
| C=C(C)[C@@H]1CC[C@]2(C)[C@H](CC=C3[C@@H]4CC(C)(C)CC[C@]4(C(=O)OC)CC[C@]32C)[C@@]1(C)CC/C(N)=N/O | 3.19 | 5.81 | 3.2 | > 100 |  | 3.33 | 10.1 | 3.67 | 4.01 | 3.73 | 1.76 | 2.05 | 1.42 | 2.47 |  | 1.69 | 2.84 | 1.72 | 1.8 | 1.79 |
| C#Cc1cccc(N2C(=O)CC(=P(c3ccccc3)(c3ccccc3)c3ccccc3)C2=O)c1 | 75.7 | > 100 |  | > 100 |  | > 100 | > 100 |  | > 100 | > 100 |  |  |  |  |  |  |  |  |  |  |
| CCCC(=O)C(CC)/C(CCC(=O)N(Cc1ccccc1)Cc1ccccc1)=N/NC(=O)C[N+](C)(C)C (stereo not given) | > 100 | > 100 | > 100 | > 100 |  | > 100 | > 100 | > 100 | > 100 | > 100 |  |  |  |  |  |  |  |  |  |  |
| COc1ccc2c(CCNS(=O)(=O)c3ccccc3)c(C(C)=O)[nH]c2c1[N+](=O)[O-] | > 100 | > 100 |  | > 100 | > 100 |  | > 100 |  | > 100 | > 100 |  |  |  |  |  |  |  |  |  |  |
| COC(=O)/C1=C/C2CC(/C=C(/c3ccccc3)C(=O)O1)C2 | 89.1 | 96.5 |  | 96.1 | 40.3 | 54.2 | 38.4 | 78 | > 100 |  |  |  |  |  |  |  |  |  |  |  |
| CC[O+]=c1cccc2ssnc1-2 | > 100 | > 100 |  | > 100 | > 100 | > 100 |  | > 100 | > 100 | > 100 |  |  |  |  |  |  |  |  |  |  |
| CCC(=O)[O-].CCC(=O)[O-].N.N.N.N.[Co+3].[O-][Cl+3]([O-])([O-])[O-] | > 100 | > 100 | > 100 | > 100 | > 100 | > 100 | > 100 |  | > 100 | > 100 | > 100 | > 100 | 27.2 | > 100 | > 100 | > 100 | > 100 | > 100 |  | > 100 |
| COc1ccc2c3c([nH]c2c1[N+](=O)[O-])C(C)N(C(=O)/C=C/c1ccccc1)CC3 (stereo not given) | 25.8 | > 100 |  | > 100 | 42.6 |  | > 100 | 24.1 | 5.88 | > 100 |  |  |  |  |  |  |  |  |  |  |
| CN1C(=O)NC2(O)c3ccccc3C(=O)C12O (stereo not given) | > 100 |  | > 100 | > 100 | > 100 | > 100 | > 100 |  | > 100 | > 100 |  |  |  |  |  |  |  |  |  |  |
| Cc1occc1C(=S)Nc1ccc(Cl)c(C(=O)OCC2CC2)c1 | > 100 | > 100 | > 100 | > 100 | > 100 | > 100 | > 100 |  | > 100 | > 100 |  |  |  |  |  |  |  |  |  |  |
| O=C(/C=C/c1ccccc1)c1ccc(O)c(CN2CCN(c3cc4c(cc3F)c(=O)c(C(=O)O)cn4C3CC3)CC2)c1 | > 100 | 13.9 |  | > 100 |  | 15.6 | 16.9 | 15.8 | 26.1 | > 100 | 0.961 | 1.9 |  | 0.278 |  | 0.769 | 2.2 | 3.91 | 1.55 | 2.05 |
| COc1cc([N+](=O)[O-])c(S(=O)(=O)O)cc1-n1nc(-c2ccccc2)n[n+]1-c1cc(S(=O)(=O)[O-])c([N+](=O)[O-])cc1OC | > 100 | > 100 |  | > 100 | > 100 | > 100 | > 100 | > 100 | > 100 | > 100 |  |  |  |  |  |  |  |  |  |  |
| CC(=O)OC1CC(C)c2c1ncnc2N1CCN(C(=O)OC(C)(C)C)CC1 (stereo not given) | > 100 | > 100 | 91.4 | > 100 | > 100 | > 100 | > 100 | > 100 |  | > 100 | 56.2 | 80.7 | 19.4 | 37.8 | 47.8 | 35.5 | 58.9 | 99.2 | 31.9 |  |
| [O-]c1c(-c2ccccc2)[se]c(-c2ccccc2)[n+]1-c1ccccc1 | 22.5 |  | 38.1 | > 100 | 30.5 | 29.3 | 29.7 | 8.45 | 12.1 |  |  |  |  |  |  |  |  |  |  |  |
| CC(=O)c1ccc(NCn2nc(-c3ccccc3O)oc2=S)cc1 | > 100 | 71.9 | > 100 | > 100 | 45.5 |  | > 100 | 72.8 | > 100 | > 100 | 74.1 | 29.6 | 42.8 | > 100 | 22.7 |  | 92.6 | > 100 | 24.6 | > 100 |
